Laboratory results reported in patent US20220305003A1, “METHODS OF TREATING CANCER WITH AN INHIBITOR OF ZNF827” (CHILDREN'S MEDICAL RESEARCH INSTITUTE, priority 2019, published 2022).

Legend:
U-2 OS cells = experiment: Sister chromatid exchange (SCE) assay in U-2 OS; format: cell-based; conditions: topotecan 2 μg/mL 1 hr
Method: For the SCE assay, 20-25% confluent cells were cultured in fresh media supplemented with 7.5 μM […] (BrdU) and 2.5 μM BrdC (BrdU:BrdC 3:1 ratio; Sigma-Aldrich) for 32-48 hours depending on the mitotic index of the cell line. Cell cultures were treated with 100 ng/mL colcemid for the last 4 hours of incubation to accumulate mitotic cells. Cells were harvested by trypsinisation and centrifugation, and then incubated in hypotonic buffer for 10 minutes at 37° C. Swollen cells were fixed by gradually adding 1 mL of fresh ice-cold fixative (methanol/acetic acid 3:1), mixing by inversion and incubating on ice for 5 minutes. Cells were then collected by centrifugation at 1200 rpm for 8 minutes. 10 mL ice cold fixative was added to resuspend the cells followed by 5 minutes incubation on ice and centrifugation at 1200 rpm for 8 minutes. This fixing step was repeated another two times. Fixed cells were then resuspended in 500-1000 μL of ice-cold fixative, and dropped onto clean, dry microscope slides (HDS Surefrost, 50-100 μL cell solution per slide). To drop chromosomes, a clean dry slide was held over a 75° C. water bath, and the cell solution was dropped from a pipette onto the slide, which was quickly flipped and held close to the surface of the water bath for 5 seconds. […]

HT1080 FUCCI cells = experiment: Live cell imaging of cell cycle in FUCCI cells; format: cell-based
Method: To further characterise the impact of ZNF827 on the cell cycle, live cell imaging was conducted with HT1080 FUCCI cells, to monitor cell progression through the cell cycle in real-time following ZNF827 depletion. The FUCCI (fluorescence ubiquitination cell cycle indicator) cells were stably transfected with fluorescence-labelled cell cycle-regulated proteins, geminin (labelled by GFP) and Cdt1 (labelled by RFP), which are only expressed during specific phases of the cell cycle (FIG. 9c). Their expressions are used to classify cells by cell cycle phase in a live cell setting.
HT1080 FUCCI cells were seeded in glass bottom 12-well plates (MakTek Corporation) the day before imaging at 30% confluency, to ensure that cells were actively cycling for the duration of the experiment. Media was replaced with phenol red free DMEM (Gibco) supplemented with 10% FCS and drug treatment immediately before transferring the plate to the microscope chamber. Imaging was performed on the Cell Observer Widefield Microscope (Zeiss) using a 20× objective at 37° C. with 10% CO2 in a XLmulti S1 full enclosure chamber. Cells were incubated in the XLmulti S1 full enclosure chamber for 2 hours prior to imaging. Three to four positions per well were captured with AxioCam (Zeiss) 506 Mono using ZEN software (Carl Zeiss) with images taken every 6 minutes for 60 hours. More than 15 cells were analysed at each position for each condition to confirm reproducibility.

[1] = 72 hr siRNA knockdown in conjunction with topotecan 2 μg/mL 1 hr

Row | Molecule | sister chromatid exchanges (SCEs) (U-2 OS cells) | G1 duration / G1 arrest (HT1080 FUCCI cells; 72 hr siRNA knockdown alone) | S/G2-M duration / G2/M arrest (HT1080 FUCCI cells; 72 hr siRNA knockdown alone) | G1 duration / G1 arrest (HT1080 FUCCI cells; [1]) | S/G2-M duration / G2/M arrest (HT1080 FUCCI cells; [1])
1 | CC[C@@]1(O)C(=O)OCc2c1cc1n(c2=O)Cc2cc3c(CN(C)C)c(O)ccc3nc2-1 [topotecan] | drastic induction of SCEs | – | – | – | –
2 | siZNF827: Stealth RNAi siRNA ZNF827HSS135819 duplex oligoribonucleotides (Invitrogen), SEQ ID NO: 12 and 13 (chain 1 GGGCAGUCUUCUGGCUGAGAAAUCA; chain 2 UGAUUUCUCAGCCAGAAGACUGCCC; listed as RNA, further chemistry not given here) | – | strong G1 arrest comparable to topotecan treatment | no impact on G2/M by itself | further exacerbated G1 arrest | significant decrease in topotecan induced G2/M arrest
